# In patent US20250237642A1 (priority 2022, published 2025):
# What was measured:
# HIV-RT Q151M mutation [1] = target: T1, HIV-RT Q151M mutation (Human immunodeficiency virus type 1 group M subtype B, UniProt P03366, Q750M); conditions: cited from earlier work
# HIV-RT M184V and M184I = conditions: cited from earlier work
# HIV-RT Q151M mutation [2] = target: T1, HIV-RT Q151M mutation; conditions: cited from earlier work; remark: listed apart in the source
# HBV core protein mutants [3] = target: HBV core protein mutants (Hepatitis B virus genotype D subtype ayw, UniProt P03146, F110I); conditions: cited from earlier work
# HBV core protein mutants [4] = target: HBV core protein mutants (Hepatitis B virus genotype D subtype ayw, UniProt P03146, F23Y); conditions: cited from earlier work
# HBV core protein mutants [5] = target: HBV core protein mutants (Hepatitis B virus genotype D subtype ayw, UniProt P03146, T33Q); conditions: cited from earlier work
# HBV core protein mutants [6] = target: HBV core protein mutants (Hepatitis B virus genotype D subtype ayw, UniProt P03146, L30F); conditions: cited from earlier work
# HBV core protein mutants [7] = target: HBV core protein mutants (Hepatitis B virus genotype D subtype ayw, UniProt P03146, L140I); conditions: cited from earlier work
# HBV core protein mutants [8] = target: HBV core protein mutants (Hepatitis B virus genotype D subtype ayw, UniProt P03146, T128I); conditions: cited from earlier work
# HBV core protein mutants [9] = target: HBV core protein mutants (Hepatitis B virus genotype D subtype ayw, UniProt P03146, T109I); conditions: cited from earlier work
# HBV wild-type = HBV wild-type (Hepatitis B virus genotype D subtype ayw, UniProt P03146)
# T109 mutant = T109 mutant (Hepatitis B virus genotype D subtype ayw, UniProt P03146, T109I)
smiles,measurement,setting,value
"Nc1nc(=O)n([C@@H]2CS[C@H](CO)O2)cc1F [(-)-FTC, emtricitabine]",Enzymatic sensitivity,HIV-RT Q151M mutation [1],remains sensitive
same,fold resistance,HIV-RT M184V and M184I,500-1000 fold
same,fold reduction of EC50,HIV-RT Q151M mutation [2],2 fold
COC(=O)C1=C(C)NC(c2ncc(F)cc2F)=N[C@H]1c1ccc(F)cc1Cl [BAY41-4109],Reported resistance mutation,HBV core protein mutants [3],reported
same,Reported resistance mutation,HBV core protein mutants [4],resistance mutations
same,Reported resistance mutation,HBV core protein mutants [5],resistance mutation
same,Reported resistance mutation,HBV core protein mutants [6],resistance mutations
C[C@H](NS(=O)(=O)c1cc(C(=O)Nc2ccc(F)c(C#N)c2)n(C)c1)C(F)(F)F [JNJ-6379],Reported resistance mutation,HBV core protein mutants [3],reported
same,Reported resistance mutation,HBV core protein mutants [4],resistance mutations
same,Reported resistance mutation,HBV core protein mutants [6],resistance mutations
same,Reported resistance mutation,HBV core protein mutants [7],reported
same,Reported resistance mutation,HBV core protein mutants [8],reported
CCOC(=O)C1=C(CN2CCOCC2)NC(c2nccs2)=NC1c1ccc(F)cc1Br (stereo not drawn) [GLS4],Reported resistance mutation,HBV core protein mutants [9],resistant
C#CCNC(=O)C(=O)c1c(C)c(C(=O)Nc2ccc(F)c(F)c2)n(C)c1C [GLP-26],Effect on HBeAg production (sensitive / resistant),HBV wild-type,Sensitive
same,Reduction of cccDNA,T109 mutant,susceptible
